Experimental findings from patent publication EP0065874A1, “2-Aminophenol derivatives, methods for their preparation and composition containing the same” (ONO PHARMACEUTICAL CO., LTD., priority 1981, dated 1982) are described below.

Structures can show the parent of a compound that is named as a salt.

The test system of one data set is cyclooxygenase. Briefly: Standard assay system using polymorphonuclear leukocytes: inhibition of HHT or TXB2 production from [1-14C] arachidonic acid. Particulars: polymorphonuclear leukocytes from guinea pig (4 x 10^7 cells), 5 minutes at 30°C, read-out: concentrations for 50% inhibitions on cyclooxygenase. Type of data set: cell-based. On the procedure: The experiments for screening using polymorphonuclear leukocytes was carried out as follows: The reaction mixture (0.1 ml) containing 5 umole of potassium phosphate at pH 7.4, 0.1 µmole of calsium chloride, polymorphonuclear leukocytes prepared from guinea pigs (4 x 10^7 cells) and test compound was preincubated for 5 minutes at 30°C. The reaction was started by the addition of [^1-14C] arachidonic acid ([…] dpm, 1.8 nmole), followed by the incubation at 30°C for 5 minutes. The reaction was terminated by the addition of 0.3 ml of mixture of ether/ methanol/lM citric acid (30/4/1). The organic phase (20 µl) was applied to silica gel plate. Thin layer chromatography was performed to separate each product with solvent system of ether/petroleum ether/acetic acid (85/15/0.1).
Activity of 5-lipoxygenase and cyclooxygenase were calculated from the measurement of the radioactivity corresponding to 5-HETE and 12L-hydroxy-5,8,10-heptareienoic acid (i.e. HHT) or thromboxane B2 (i.e. TXB2). [it have been known that HHT and TXB2 were the last products of the system concerning cyclooxygenase in the arachidonate cascade] Further, it was determined that the concentrations of 50% inhibitions to produce 5-HETE and HHT or TXB2 for the 50% inhibiting concentrations of 5-lipoxygenase and cyclooxygenase, respectively.

In another data set the test system is mice. Kind of data set: Acute toxicity by intravenous injection. Type of data set: in vivo. Particulars: intravenous injection to tail vein, doses of 10 mg/Kg and 30 mg/Kg. On the procedure: On the other hand, all extent of the compounds of the present invention were confirmed that their acute toxicities were more than 30 mg/Kg by intravenous injection. Therefore, the compounds of the present invention may be considered to be sufficiently safe and suitable for medical use.

For `Nc1cc(F)cc(C(O)c2ccc(Cl)cc2)c1O` (stereo not drawn) [3-Amino-4'-chloro-5-fluoro-2-hydroxybenzhydrol hydrochloride], the IC50 in the data set with cyclooxygenase stood at 7.2 µM.
Same read-out and setting: the figure for `CC(C)(C)c1cc(N)c(O)c(C(O)c2ccc(Cl)cc2)c1` (stereo not drawn) [3-Amino-5-t-butyl-4'-chloro-2-hydroxybenzhydrol hydrochloride] is 100 µM.
Turning to `COc1ccc(C(=O)c2cc(Cl)cc(N)c2O)cc1.Cl` [3-Amino-5-chloro-2-hydroxy-4'-methoxybenzophenone hydrochloride], in the data set with mice, the “dead case in 30 cases” value is “no dead case”.
With `Nc1cc(F)cc(C(=O)c2ccc(Cl)cc2)c1O` [3-Amino-4'-chloro-5-fluoro-2-hydroxybenzophenona], the IC50 with cyclooxygenase is 2 µM.
On the same count and under the same terms, the figure for `Nc1cc(Cl)cc(C(=O)c2ccc(Cl)cc2)c1O` [3-Amino-5,4'-dichloro-2-hydroxybenzophenone] is 3 µM.
Take `CCCCCCC(O)c1cc(C(C)(C)C)cc(N)c1O` (stereo not drawn) [2-Amino-4-t-butyl-6-(1-hydroxyheptyl)phenol]: the “dead case in 30 cases” value in the data set with mice was “no dead case”.
